What follows are compounds tested on LXRα and/or LXRβ (assay: Co-transfection assay (LXRE luciferase reporter, CV-1 cells)). Details: tested as described in Example 33; IC50 or EC50 for LXRα and/or LXRβ, isoform not specified; read-out: activity (IC50 or EC50 for LXR).
Assay type: cell-based, human
How it was run: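 CV-1 cells transiently co-transfected with full-length human LXRα or LXRβ plus RXRα, an LXRE×1-Tk-luciferase reporter and a β-galactosidase control. Compounds incubated 20 h at 37 °C (≤1% DMSO; screen at 10 μM final); luciferase read after lysis. EC50/IC50 from 8-point half-log curves (4 wells per point, ≥3 experiments); efficacy relative to a reference agonist high control and DMSO.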
For `CC(C)(O)c1cn(-c2ccc(-c3cccc(S(C)(=O)=O)c3)cc2Cl)c(-c2cccc(Cl)c2Cl)n1` [Example 140, 2-(1-(3-chloro-3′-(methyl-sulfonyl)biphenyl-4-yl)-2-(2,3-dichlorophenyl)-1H-imidazol-4-yl)propan-2-ol], the IC50 or EC50 (potency, activation or inhibition) was under 1 µM. `CCS(=O)(=O)c1cccc(-c2ccc(-n3cc(C(C)(C)O)nc3-c3cccc(Cl)c3Cl)c(Cl)c2)c1` [Example 141, 2-(1-(3-chloro-3′-(ethyl-sulfonyl)biphenyl-4-yl)-2-(2,3-dichlorophenyl)-1H-imidazol-4-yl)propan-2-ol] gave an IC50 or EC50 (potency, activation or inhibition) of under 1 µM. Work on `CC(C)(O)c1cn(-c2ccc(-c3cccc(S(C)(=O)=O)c3)cc2Cl)c(-c2c(Cl)cccc2Cl)n1` [Example 142, 2-(1-(3-chloro-3′-(methyl-sulfonyl)biphenyl-4-yl)-2-(2,6-dichlorophenyl)-1H-imidazol-4-yl)propan-2-ol] yielded an IC50 or EC50 (potency, activation or inhibition) of under 1 µM. With `Cc1c(Cl)cccc1-c1nc(C(C)(C)O)cn1-c1ccc(-c2cccc(S(C)(=O)=O)c2)cc1Cl` [Example 143, 2-(2-(3-chloro-2-methylphenyl)-1-(3-chloro-3′-(methylsulfonyl)biphenyl-4-yl)-1H-imidazol-4-yl)propan-2-ol] the IC50 or EC50 (potency, activation or inhibition) was under 1 µM. For `CCS(=O)(=O)c1cccc(-c2ccc(-n3cc(C(C)(C)O)nc3-c3cccc(Cl)c3C)c(Cl)c2)c1` [Example 144, 2-(2-(3-chloro-2-methylphenyl)-1-(3-chloro-3′-(ethylsulfonyl)biphenyl-4-yl)-1H-imidazol-4-yl)propan-2-ol], the IC50 or EC50 (potency, activation or inhibition) was under 1 µM. Compound `CC(C)(O)c1cn(-c2ccc(-c3cccc(S(C)(=O)=O)c3)cc2Cl)c(-c2c(F)cccc2Cl)n1` [Example 145, 2-(1-(3-chloro-3′-(methyl-sulfonyl)biphenyl-4-yl)-2-(2-chloro-6-fluorophenyl)-1H-imidazol-4-yl)propan-2-ol] has an IC50 or EC50 (potency, activation or inhibition) of under 1 µM. Work on `CCS(=O)(=O)c1cccc(-c2ccc(-n3cc(C(C)(C)O)nc3-c3c(F)cccc3Cl)c(Cl)c2)c1` [Example 146, 2-(1-(3-chloro-3′-(ethyl-sulfonyl)biphenyl-4-yl)-2-(2-chloro-6-fluorophenyl)-1H-imidazol-4-yl)propan-2-ol] yielded an IC50 or EC50 (potency, activation or inhibition) of under 1 µM. `CC(C)(O)c1cn(-c2ccc(-c3ccc(CO)c(S(C)(=O)=O)c3)cc2Cl)c(-c2c(F)cccc2Cl)n1` [Example 147, 2-(1-(3-chloro-4′-(hydroxymethyl)-3′-(methylsulfonyl)biphenyl-4-yl)-2-(2-chloro-6-fluorophenyl)-1H-imidazol-4-yl)propan-2-ol] was tested, and the IC50 or EC50 (potency, activation or inhibition) was under 1 µM. Compound `CC(C)(O)c1cn(-c2ccc(-c3ccc(CO)c(S(C)(=O)=O)c3)cc2Cl)c(-c2cccc(Cl)c2Cl)n1` [Example 148, 2-(1-(3-chloro-4′-(hydroxymethyl)-3′-(methylsulfonyl)biphenyl-4-yl)-2-(2,3-dichlorophenyl)-1H-imidazol-4-yl)propan-2-ol] has an IC50 or EC50 (potency, activation or inhibition) of under 1 µM. In the case of `CC(C)(O)c1cn(-c2ccc(-c3ccc(CO)c(S(C)(=O)=O)c3)cc2Cl)c(-c2c(Cl)cccc2Cl)n1` [Example 149, 2-(1-(3-chloro-4′-(hydroxymethyl)-3′-(methylsulfonyl)biphenyl-4-yl)-2-(2,6-dichlorophenyl)-1H-imidazol-4-yl)propan-2-ol], the IC50 or EC50 (potency, activation or inhibition) is reported as under 1 µM. `CCS(=O)(=O)c1cccc(-c2ccc(-n3cc(C(C)(C)O)nc3-c3c(Cl)cccc3Cl)c(Cl)c2)c1` [Example 150, 2-(1-(3-chloro-3′-(ethyl-sulfonyl)biphenyl-4-yl)-2-(2,6-dichlorophenyl)-1H-imidazol-4-yl)propan-2-ol] was tested, and the IC50 or EC50 (potency, activation or inhibition) was under 1 µM. `CC(C)(O)c1cn(-c2ccc(-c3cccc(S(C)(=O)=O)c3)cc2Cl)c(-c2cccc(F)c2Cl)n1` [Example 151, 2-(1-(3-chloro-3′-(methyl-sulfonyl)biphenyl-4-yl)-2-(2-chloro-3-fluorophenyl)-1H-imidazol-4-yl)propan-2-ol] gave an IC50 or EC50 (potency, activation or inhibition) of under 1 µM. For `CCS(=O)(=O)c1cccc(-c2ccc(-n3cc(C(C)(C)O)nc3-c3cccc(F)c3Cl)c(Cl)c2)c1` [Example 152, 2-(1-(3-chloro-3′-(ethyl-sulfonyl)biphenyl-4-yl)-2-(2-chloro-3-fluorophenyl)-1H-imidazol-4-yl)propan-2-ol], the IC50 or EC50 (potency, activation or inhibition) was under 1 µM. `CC(C)(O)c1cn(-c2ccc(-c3ccc(CO)c(S(C)(=O)=O)c3)cc2Cl)c(-c2cccc(F)c2Cl)n1` [Example 153, 2-(2-(2-chloro-3-fluorophenyl)-1-(3-chloro-4′-(hydroxymethyl)-3′-(methylsulfonyl)biphenyl-4-yl)-1H-imidazol-4-yl)propan-2-ol] was tested, and the IC50 or EC50 (potency, activation or inhibition) was under 1 µM. Work on `CCS(=O)(=O)c1cccc(-c2ccc(-n3cc(C(C)(C)O)nc3-c3c(C)cccc3Cl)c(Cl)c2)c1` [Example 154, 2-(1-(3-chloro-3′-(ethyl-sulfonyl)biphenyl-4-yl)-2-(2-chloro-6-methylphenyl)-1H-imidazol-4-yl)propan-2-ol] yielded an IC50 or EC50 (potency, activation or inhibition) of under 1 µM. `Cc1cccc(Cl)c1-c1nc(C(C)(C)O)cn1-c1ccc(-c2ccc(CO)c(S(C)(=O)=O)c2)cc1Cl` [Example 155, 2-(1-(3-chloro-4′-(hydroxy-methyl)-3′-(methylsulfonyl)biphenyl-4-yl)-2-(2-chloro-6-methylphenyl)-1H-imidazol-4-yl)propan-2-ol] showed an IC50 or EC50 (potency, activation or inhibition) of under 1 µM. In the case of `Cc1cccc(Cl)c1-c1nc(C(C)(C)O)cn1-c1ccc(-c2cccc(S(C)(=O)=O)c2)cc1Cl` [Example 156, 2-(1-(3-chloro-3′-(methyl-sulfonyl)biphenyl-4-yl)-2-(2-chloro-6-methylphenyl)-1H-imidazol-4-yl)propan-2-ol], the IC50 or EC50 (potency, activation or inhibition) is reported as under 1 µM. In the case of `CC(C)(O)c1cn(-c2ccc(-c3cccc(S(C)(=O)=O)c3)cc2Cl)c(-c2c(F)cccc2F)n1` [Example 157, 2-(1-(3-chloro-3′-(methyl-sulfonyl)biphenyl-4-yl)-2-(2,6-difluorophenyl)-1H-imidazol-4-yl)propan-2-ol], the IC50 or EC50 (potency, activation or inhibition) is reported as under 1 µM. `CCS(=O)(=O)c1cccc(-c2ccc(-n3cc(C(C)(C)O)nc3-c3c(F)cccc3F)c(Cl)c2)c1` [Example 158, 2-(1-(3-chloro-3′-(ethyl-sulfonyl)biphenyl-4-yl)-2-(2,6-difluorophenyl)-1H-imidazol-4-yl)propan-2-ol] showed an IC50 or EC50 (potency, activation or inhibition) of under 1 µM. `CC(C)(O)c1cn(-c2ccc(-c3ccc(CO)c(S(C)(=O)=O)c3)cc2Cl)c(-c2c(F)cccc2F)n1` [Example 159, 2-(1-(3-chloro-4′-(hydroxymethyl)-3′-(methylsulfonyl)biphenyl-4-yl)-2-(2,6-difluorophenyl)-1H-imidazol-4-yl)propan-2-ol] showed an IC50 or EC50 (potency, activation or inhibition) of under 1 µM. In the case of `Cc1c(Cl)cccc1-c1nc(C(C)(C)O)cn1-c1ccc(-c2ccc(CO)c(S(C)(=O)=O)c2)cc1Cl` [Example 160, 2-(2-(3-chloro-2-methylphenyl)-1-(3-chloro-4′-(hydroxymethyl)-3′-(methylsulfonyl)biphenyl-4-yl)-1H-imidazol-4-yl)propan-2-ol], the IC50 or EC50 (potency, activation or inhibition) is reported as under 1 µM. For `CC(C)c1ccccc1-c1nc(C(C)(C)O)cn1-c1ccc(-c2cccc(S(C)(=O)=O)c2)cc1Cl` [Example 161, 2-(1-(3-chloro-3′-(methyl-sulfonyl)biphenyl-4-yl)-2-(2-isopropylphenyl)-1H-imidazol-4-yl)propan-2-ol], the IC50 or EC50 (potency, activation or inhibition) was under 1 µM. `CC(C)(O)c1cn(-c2ccc(-c3ccc(C(C)(C)O)c(S(C)(=O)=O)c3)cc2Cl)c(-c2ccccc2Cl)n1` [Example 162, 2-(3′-chloro-4′-(2-(2-chlorophenyl)-4-(2-hydroxypropan-2-yl)-1H-imidazol-1-yl)-3-(methylsulfonyl)biphenyl-4-yl)propan-2-ol] showed an IC50 or EC50 (potency, activation or inhibition) of under 1 µM. For `CC(C)(O)c1cn(-c2ccc(-c3ccc(C(C)(C)O)c(S(C)(=O)=O)c3)cc2Cl)c(-c2ccccc2C(F)(F)F)n1` [Example 163, 2-(1-(3-chloro-4′-(2-hydroxypropan-2-yl)-3′-(methylsulfonyl)biphenyl-4-yl)-2-(2-(trifluoromethyl)phenyl)-1H-imidazol-4-yl)propan-2-ol], the IC50 or EC50 (potency, activation or inhibition) was under 1 µM. Work on `CC(C)(O)c1cn(-c2ccc(-c3ccc(C(C)(C)O)c(S(C)(=O)=O)c3)cc2Cl)c(-c2c(F)cccc2Cl)n1` [Example 164, 2-(3′-chloro-4′-(2-(2-chloro-6-fluorophenyl)-4-(2-hydroxypropan-2-yl)-1H-imidazol-1-yl)-3-(methyl-sulfonyl)biphenyl-4-yl)propan-2-ol] yielded an IC50 or EC50 (potency, activation or inhibition) of 1 to 10 µM. `CCOC(=O)c1ccc(-c2ccc(-n3cc(C(C)(C)O)nc3-c3c(F)cccc3Cl)c(Cl)c2)cc1S(C)(=O)=O` [Example 165, ethyl 3′-chloro-4′-(2-(2-chloro-6-fluorophenyl)-4-(2-hydroxypropan-2-yl)-1H-imidazol-1-yl)-3-(methyl-sulfonyl)biphenyl-4-carboxylate] gave an IC50 or EC50 (potency, activation or inhibition) of 1 to 10 µM. Compound `Cc1cc(-c2cccc(S(C)(=O)=O)c2)cc(Cl)c1-n1cc(C(C)(C)O)nc1-c1ccccc1Cl` [Example 168, 2-(1-(3-chloro-5-methyl-3′-(methyl-sulfonyl)biphenyl-4-yl)-2-(2-chlorophenyl)-1H-imidazol-4-yl)propan-2-ol] has an IC50 or EC50 (potency, activation or inhibition) of 1 to 10 µM. `CCS(=O)(=O)c1cccc(-c2cc(C)c(-n3cc(C(C)(C)O)nc3-c3ccccc3Cl)c(Cl)c2)c1` [Example 169, 2-(1-(3-chloro-3′-(ethylsulfonyl)-5-methylbiphenyl-4-yl)-2-(2-chlorophenyl)-1H-imidazol-4-yl)propan-2-ol] was tested, and the IC50 or EC50 (potency, activation or inhibition) was under 1 µM. Work on `CCc1cc(-c2cccc(S(C)(=O)=O)c2)ccc1-n1cc(C(C)(C)O)nc1-c1ccccc1Cl` [Example 170, 2-(2-(2-chlorophenyl)-1-(3-ethyl-3′-(methylsulfonyl)biphenyl-4-yl)-1H-imidazol-4-yl)propan-2-ol] yielded an IC50 or EC50 (potency, activation or inhibition) of under 1 µM.

Source: patent US9000022B2 (Exelixis Patent Company LLC, priority 2005, dated 2015)
